According to ChEMBL document CHEMBL1201862, “PubChem BioAssay data set” (2004):
Calls of active or inactive are those of the source.

Tests used:
[1] = biological target: T1, Short transient receptor potential channel 4 (Mus musculus, UniProt Q9QUQ5); test: mouse TRPC4 channel activators, dose response, cell-based, HEK293 TRPC4/mu-opioid, Fluo-4 calcium (AID 434937); format: functional
T1 sequence (Q9QUQ5 whole entry): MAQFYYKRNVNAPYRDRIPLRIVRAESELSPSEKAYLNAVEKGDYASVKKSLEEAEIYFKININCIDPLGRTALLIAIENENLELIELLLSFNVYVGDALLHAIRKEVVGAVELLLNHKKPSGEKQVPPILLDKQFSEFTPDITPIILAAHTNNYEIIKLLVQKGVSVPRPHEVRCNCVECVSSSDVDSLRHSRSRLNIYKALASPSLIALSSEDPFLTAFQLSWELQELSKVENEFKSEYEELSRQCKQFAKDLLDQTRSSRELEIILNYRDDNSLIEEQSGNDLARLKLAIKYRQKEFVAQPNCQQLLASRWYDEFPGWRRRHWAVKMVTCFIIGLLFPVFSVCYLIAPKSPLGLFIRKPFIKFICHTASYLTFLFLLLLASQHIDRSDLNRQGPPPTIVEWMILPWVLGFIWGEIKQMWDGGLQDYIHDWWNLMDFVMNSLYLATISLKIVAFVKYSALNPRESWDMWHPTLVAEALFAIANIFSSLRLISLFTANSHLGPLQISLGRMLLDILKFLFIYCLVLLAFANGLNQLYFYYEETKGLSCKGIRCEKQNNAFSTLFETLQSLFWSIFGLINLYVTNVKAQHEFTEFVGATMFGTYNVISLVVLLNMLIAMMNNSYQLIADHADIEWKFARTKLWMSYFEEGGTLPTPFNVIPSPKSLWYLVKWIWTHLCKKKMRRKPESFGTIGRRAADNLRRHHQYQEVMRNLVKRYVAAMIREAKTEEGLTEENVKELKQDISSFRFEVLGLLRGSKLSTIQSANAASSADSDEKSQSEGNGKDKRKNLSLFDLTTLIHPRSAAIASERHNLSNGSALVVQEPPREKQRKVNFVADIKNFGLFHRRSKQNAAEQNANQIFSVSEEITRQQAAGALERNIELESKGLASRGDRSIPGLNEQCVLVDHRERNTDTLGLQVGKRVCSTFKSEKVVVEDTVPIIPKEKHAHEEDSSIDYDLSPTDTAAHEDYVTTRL

[2] = biological target: Glyceraldehyde-3-phosphate dehydrogenase (Homo sapiens, UniProt P04406)
Sequence of Glyceraldehyde-3-phosphate dehydrogenase (P04406 whole entry): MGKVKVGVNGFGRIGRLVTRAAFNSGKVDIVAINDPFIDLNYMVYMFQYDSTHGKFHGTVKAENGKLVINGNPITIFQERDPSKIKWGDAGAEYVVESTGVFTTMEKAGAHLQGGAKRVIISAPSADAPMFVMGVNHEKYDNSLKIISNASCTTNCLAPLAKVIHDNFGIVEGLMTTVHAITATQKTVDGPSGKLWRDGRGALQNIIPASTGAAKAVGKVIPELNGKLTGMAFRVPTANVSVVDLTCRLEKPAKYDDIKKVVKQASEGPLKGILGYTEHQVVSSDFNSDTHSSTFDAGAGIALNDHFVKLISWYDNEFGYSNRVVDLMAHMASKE

[3] = biological target: T2, Alkaline phosphatase, tissue-nonspecific isozyme (Homo sapiens, UniProt P05186); test: human TNAP enzyme inhibitors, SAR follow-up, biochemical, luminescent, dose response (AID 1056)
T2 sequence (P05186 whole entry): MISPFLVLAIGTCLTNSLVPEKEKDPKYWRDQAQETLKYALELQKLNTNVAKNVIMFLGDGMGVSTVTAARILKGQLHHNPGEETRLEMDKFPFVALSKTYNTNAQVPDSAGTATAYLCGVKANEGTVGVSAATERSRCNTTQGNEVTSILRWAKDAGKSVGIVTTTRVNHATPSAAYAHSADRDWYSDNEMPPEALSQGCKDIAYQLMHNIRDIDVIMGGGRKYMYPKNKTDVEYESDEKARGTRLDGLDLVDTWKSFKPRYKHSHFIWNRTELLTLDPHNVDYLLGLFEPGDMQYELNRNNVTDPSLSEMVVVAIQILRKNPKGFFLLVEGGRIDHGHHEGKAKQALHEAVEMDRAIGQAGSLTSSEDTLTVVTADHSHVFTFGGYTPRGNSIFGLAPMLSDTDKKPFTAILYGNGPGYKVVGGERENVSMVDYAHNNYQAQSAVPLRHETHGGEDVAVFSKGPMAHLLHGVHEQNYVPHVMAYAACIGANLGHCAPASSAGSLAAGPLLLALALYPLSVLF

[4] = biological target: T3, Tyrosine-protein phosphatase non-receptor type 22 (Homo sapiens, UniProt Q9Y2R2); format: functional
T3 sequence (Q9Y2R2 whole entry): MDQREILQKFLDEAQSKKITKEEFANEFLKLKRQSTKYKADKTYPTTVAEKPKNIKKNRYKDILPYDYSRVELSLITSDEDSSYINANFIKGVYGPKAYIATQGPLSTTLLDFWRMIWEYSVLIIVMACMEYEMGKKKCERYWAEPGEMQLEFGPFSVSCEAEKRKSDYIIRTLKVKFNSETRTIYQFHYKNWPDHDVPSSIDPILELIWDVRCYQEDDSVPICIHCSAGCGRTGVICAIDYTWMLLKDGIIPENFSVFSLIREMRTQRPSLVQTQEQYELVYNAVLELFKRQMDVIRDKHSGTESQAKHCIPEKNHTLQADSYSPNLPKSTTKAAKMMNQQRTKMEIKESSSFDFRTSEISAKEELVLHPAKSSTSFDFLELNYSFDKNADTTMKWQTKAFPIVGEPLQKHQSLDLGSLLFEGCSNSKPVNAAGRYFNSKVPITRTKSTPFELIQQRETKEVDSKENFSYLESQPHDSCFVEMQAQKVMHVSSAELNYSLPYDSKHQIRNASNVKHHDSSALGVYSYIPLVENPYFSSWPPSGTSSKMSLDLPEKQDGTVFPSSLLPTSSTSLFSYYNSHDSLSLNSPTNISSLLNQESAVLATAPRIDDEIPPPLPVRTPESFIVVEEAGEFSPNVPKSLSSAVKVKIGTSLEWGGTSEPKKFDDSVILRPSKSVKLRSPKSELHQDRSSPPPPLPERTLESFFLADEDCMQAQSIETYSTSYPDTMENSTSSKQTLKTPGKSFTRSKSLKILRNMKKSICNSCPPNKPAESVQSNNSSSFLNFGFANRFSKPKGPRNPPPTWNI

[5] = biological target: T3, Tyrosine-protein phosphatase non-receptor type 22; format: functional; remark: listed apart in the source
Genome polyprotein = Genome polyprotein (dengue virus type 2, UniProt P29990); test: Dengue-2 NS5 methyltransferase inhibitors, primary screen, biochemical, confirmation dose response (AID 588689); format: functional
Sequence of Genome polyprotein (P29990 2492-3391 limits assumed): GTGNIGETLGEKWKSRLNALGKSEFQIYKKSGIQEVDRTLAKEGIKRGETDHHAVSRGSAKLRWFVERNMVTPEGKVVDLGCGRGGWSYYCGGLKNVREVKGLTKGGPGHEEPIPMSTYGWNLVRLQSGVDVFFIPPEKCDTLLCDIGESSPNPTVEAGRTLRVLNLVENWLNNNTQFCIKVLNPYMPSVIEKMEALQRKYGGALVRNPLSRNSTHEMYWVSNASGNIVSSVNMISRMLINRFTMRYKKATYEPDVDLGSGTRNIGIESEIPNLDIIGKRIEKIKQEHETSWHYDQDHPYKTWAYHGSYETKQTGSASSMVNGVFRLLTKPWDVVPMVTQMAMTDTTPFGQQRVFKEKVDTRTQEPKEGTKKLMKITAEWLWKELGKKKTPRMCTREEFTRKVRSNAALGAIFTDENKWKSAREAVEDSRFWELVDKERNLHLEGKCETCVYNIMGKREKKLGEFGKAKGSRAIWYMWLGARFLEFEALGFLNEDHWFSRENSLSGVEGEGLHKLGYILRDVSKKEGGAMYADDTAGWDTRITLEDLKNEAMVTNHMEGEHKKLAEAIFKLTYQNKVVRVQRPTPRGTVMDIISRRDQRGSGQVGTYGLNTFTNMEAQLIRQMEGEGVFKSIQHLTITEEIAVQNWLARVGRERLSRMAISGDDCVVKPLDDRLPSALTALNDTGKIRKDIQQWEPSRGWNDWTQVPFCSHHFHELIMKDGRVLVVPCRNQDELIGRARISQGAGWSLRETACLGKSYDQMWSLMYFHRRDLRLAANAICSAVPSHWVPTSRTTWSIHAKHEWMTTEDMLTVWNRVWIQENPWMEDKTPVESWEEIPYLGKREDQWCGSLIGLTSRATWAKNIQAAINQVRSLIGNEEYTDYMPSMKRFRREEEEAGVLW

[6] = biological target: T4, Tyrosine-protein phosphatase non-receptor type 7 (Homo sapiens, UniProt P35236); format: functional
T4 sequence (P35236 whole entry): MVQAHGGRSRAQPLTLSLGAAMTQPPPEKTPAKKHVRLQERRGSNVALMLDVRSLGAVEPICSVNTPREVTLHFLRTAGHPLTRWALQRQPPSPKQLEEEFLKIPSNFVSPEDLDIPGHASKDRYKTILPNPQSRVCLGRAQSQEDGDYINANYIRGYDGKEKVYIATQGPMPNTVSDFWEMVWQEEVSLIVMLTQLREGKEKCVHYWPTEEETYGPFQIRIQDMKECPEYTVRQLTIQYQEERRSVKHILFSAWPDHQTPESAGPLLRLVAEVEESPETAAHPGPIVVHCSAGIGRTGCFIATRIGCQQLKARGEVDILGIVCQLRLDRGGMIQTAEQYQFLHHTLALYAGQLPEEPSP

[7] = biological target: T1, Short transient receptor potential channel 4; test: mouse TRPC4 channel inhibitors, dose response, cell-based, HEK293 TRPC4/mu-opioid, Fluo-4 calcium (AID 434942); format: functional;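 further: potency of inhibitors blocking the TRPC4 calcium response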
Protein RecA = biological target: T5, Protein RecA (Mycobacterium tuberculosis, UniProt P9WHJ3); test: Fluorescence Cell-Free Homogeneous Dose Retest to Identify Inhibitors of RecA-Intein Splicing Activity. [Related pubchem assays (depositor defined):AID2097, AID2223, AID489010, AID492950]; format: functional
T5 sequence (P9WHJ3 whole entry): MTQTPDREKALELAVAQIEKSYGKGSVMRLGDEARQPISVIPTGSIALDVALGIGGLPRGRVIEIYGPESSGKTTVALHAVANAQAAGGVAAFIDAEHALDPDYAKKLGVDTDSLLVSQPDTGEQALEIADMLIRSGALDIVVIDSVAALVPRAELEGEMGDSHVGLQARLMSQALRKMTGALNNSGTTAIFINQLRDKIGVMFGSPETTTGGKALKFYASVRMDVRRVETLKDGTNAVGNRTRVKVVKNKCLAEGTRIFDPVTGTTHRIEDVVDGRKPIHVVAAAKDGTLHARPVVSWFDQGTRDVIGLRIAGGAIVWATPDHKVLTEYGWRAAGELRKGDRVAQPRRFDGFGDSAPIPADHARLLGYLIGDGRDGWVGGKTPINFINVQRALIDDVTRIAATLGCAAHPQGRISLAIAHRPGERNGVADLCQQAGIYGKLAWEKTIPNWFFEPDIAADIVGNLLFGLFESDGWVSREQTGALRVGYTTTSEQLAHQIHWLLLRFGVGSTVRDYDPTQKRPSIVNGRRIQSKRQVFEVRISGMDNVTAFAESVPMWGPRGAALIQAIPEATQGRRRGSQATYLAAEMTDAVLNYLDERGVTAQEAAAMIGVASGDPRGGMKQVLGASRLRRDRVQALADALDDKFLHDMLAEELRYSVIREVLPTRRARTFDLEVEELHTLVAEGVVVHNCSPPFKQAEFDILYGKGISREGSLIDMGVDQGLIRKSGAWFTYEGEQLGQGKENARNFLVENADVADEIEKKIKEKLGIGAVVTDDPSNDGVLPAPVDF

[8] = biological target: T6, Replicative DNA helicase DnaB (Mycobacterium tuberculosis, UniProt P9WMR3); test: DnaB intein splicing inhibitors, dose response, biochemical, cell-free fluorescence (AID 449749); format: functional
T6 sequence (P9WMR3 whole entry): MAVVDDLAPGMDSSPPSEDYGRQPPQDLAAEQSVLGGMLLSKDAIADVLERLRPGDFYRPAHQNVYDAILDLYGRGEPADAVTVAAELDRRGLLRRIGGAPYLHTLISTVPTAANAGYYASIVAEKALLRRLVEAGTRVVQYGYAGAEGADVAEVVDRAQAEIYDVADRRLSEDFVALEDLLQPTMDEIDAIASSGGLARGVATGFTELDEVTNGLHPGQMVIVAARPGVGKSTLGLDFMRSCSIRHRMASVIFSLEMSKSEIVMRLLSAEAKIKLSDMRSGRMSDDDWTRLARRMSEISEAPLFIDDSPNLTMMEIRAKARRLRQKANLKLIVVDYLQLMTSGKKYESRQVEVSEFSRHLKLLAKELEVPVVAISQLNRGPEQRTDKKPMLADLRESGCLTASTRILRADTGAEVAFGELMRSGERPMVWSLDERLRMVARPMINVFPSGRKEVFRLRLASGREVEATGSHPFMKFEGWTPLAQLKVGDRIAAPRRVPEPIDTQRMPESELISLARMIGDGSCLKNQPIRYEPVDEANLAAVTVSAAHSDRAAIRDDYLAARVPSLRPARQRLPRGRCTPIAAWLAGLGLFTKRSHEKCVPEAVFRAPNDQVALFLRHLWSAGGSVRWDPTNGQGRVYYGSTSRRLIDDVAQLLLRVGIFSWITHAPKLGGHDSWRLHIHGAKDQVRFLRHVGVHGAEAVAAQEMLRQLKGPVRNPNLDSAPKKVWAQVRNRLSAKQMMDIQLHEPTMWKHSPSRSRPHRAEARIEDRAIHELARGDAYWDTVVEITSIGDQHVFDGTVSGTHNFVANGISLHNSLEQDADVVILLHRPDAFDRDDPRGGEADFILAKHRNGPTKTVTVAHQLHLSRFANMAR

[9] = biological target: G-protein coupled receptor 55 (Homo sapiens, UniProt Q9Y2T6); test: GPR55 agonists via beta-arrestin recruitment, primary screen, imaging, U2OS cells, beta-arrestin-GFP redistribution (AID 1961); format: functional
Sequence of G-protein coupled receptor 55 (Q9Y2T6 whole entry): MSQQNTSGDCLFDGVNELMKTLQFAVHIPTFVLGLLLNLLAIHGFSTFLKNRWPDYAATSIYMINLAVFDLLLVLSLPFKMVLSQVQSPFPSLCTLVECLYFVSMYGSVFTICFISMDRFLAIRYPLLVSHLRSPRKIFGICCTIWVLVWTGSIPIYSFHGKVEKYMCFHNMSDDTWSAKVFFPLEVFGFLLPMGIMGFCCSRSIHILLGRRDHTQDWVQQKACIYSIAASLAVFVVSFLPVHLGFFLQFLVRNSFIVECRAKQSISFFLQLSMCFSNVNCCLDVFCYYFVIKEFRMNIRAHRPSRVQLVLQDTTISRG

[10] = biological target: T7, Microphthalmia-associated transcription factor (Homo sapiens, UniProt O75030); test: TRPM1 promoter luciferase signal decrease, dose response, MITF inhibitor project, cell-based, SK-MEL-5, cherry-picked, set 3 (AID 493073); format: functional
T7 sequence (O75030 whole entry): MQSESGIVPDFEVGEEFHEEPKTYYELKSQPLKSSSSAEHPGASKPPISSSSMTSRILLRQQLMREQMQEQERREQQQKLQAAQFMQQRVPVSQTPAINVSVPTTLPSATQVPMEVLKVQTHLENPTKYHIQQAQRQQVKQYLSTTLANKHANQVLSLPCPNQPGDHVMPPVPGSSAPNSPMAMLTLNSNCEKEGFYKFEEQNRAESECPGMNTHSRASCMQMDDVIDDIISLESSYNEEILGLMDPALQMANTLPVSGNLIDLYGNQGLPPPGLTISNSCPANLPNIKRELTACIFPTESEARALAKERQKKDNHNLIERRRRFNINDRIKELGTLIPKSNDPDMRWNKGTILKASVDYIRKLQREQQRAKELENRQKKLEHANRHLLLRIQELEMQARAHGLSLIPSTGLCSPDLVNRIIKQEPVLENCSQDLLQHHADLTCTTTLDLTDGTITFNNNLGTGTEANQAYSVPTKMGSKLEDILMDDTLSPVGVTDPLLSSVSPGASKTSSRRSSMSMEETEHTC

H9c2 = test: cells; format: functional, cell-based; conditions: Rattus norvegicus, H9c2, Myocardium;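 further: confirmatory concentration-response retest of ultra-high-throughput screening hits for modulation of myocardial damage; cell death induced by hydrogen peroxide oxidative stress; compound pretreatment for 60 min then peroxide exposure for 2 h; potency is for protecting the cells against peroxide damage rather than for killing them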
SUMO-activating enzyme = SUMO-activating enzyme (Homo sapiens, UniProt Q9UBT2); test: SUMOylation inhibitor hit validation, confirmation, SUMOylation inhibitor project, biochemical, AlphaScreen (AID 2018); format: functional
Sequence of SUMO-activating enzyme (Q9UBE0 whole entry): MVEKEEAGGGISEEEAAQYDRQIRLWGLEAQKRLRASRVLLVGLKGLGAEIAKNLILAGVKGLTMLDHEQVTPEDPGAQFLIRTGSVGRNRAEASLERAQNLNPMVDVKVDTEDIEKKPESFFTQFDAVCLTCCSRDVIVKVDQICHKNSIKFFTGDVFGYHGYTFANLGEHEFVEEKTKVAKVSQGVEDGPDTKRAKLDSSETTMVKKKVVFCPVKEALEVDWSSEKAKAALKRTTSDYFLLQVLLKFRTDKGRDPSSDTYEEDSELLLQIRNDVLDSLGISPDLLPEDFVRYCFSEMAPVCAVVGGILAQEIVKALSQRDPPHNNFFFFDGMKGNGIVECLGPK
Sequence of SUMO-activating enzyme (Q9UBT2 whole entry): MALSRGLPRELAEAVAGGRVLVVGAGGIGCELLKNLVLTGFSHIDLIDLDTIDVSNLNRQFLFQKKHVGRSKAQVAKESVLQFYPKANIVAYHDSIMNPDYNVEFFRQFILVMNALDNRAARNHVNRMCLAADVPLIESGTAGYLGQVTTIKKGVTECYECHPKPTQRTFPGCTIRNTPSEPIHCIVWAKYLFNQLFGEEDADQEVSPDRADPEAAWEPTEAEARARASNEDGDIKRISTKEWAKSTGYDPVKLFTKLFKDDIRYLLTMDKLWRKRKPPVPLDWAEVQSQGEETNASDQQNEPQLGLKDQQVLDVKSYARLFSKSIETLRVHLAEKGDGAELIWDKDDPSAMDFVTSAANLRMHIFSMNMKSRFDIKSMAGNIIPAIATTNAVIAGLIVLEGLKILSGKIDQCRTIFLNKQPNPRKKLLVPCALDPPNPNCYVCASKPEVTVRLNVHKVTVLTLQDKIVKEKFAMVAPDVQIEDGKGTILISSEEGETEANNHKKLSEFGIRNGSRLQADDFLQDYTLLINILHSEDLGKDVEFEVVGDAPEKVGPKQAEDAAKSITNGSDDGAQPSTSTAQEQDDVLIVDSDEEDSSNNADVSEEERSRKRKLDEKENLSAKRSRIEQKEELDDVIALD

CC1CCCN(CCCNC(=O)c2ccc3c(c2)N(Cc2ccccc2F)C(=O)c2ccccc2S3(=O)=O)C1 (stereo not given)
EC50 [1]: 0.944 µM (active)

Cn1nc(-c2ccc(F)cc2)cc1C(=O)O
IC50 [2]: > 100 µM (not active)
IC50 [3]: > 100 µM (inactive)

COc1cccc(Cc2nnc(N3C(=O)[C@H]4CCCC[C@H]4C3=O)[nH]2)c1
IC50 [2]: > 100 µM (not active)
IC50 [3]: 1.63 µM (active)

CCCOC(=O)c1c(-c2ccc(C)cc2C)csc1NC(=O)C1C2CCC(O2)C1C(=O)O (stereo not given)
IC50 [4]: > 79.4 µM (inactive)
IC50 [5]: > 79.4 µM (inactive)
IC50 (Genome polyprotein): 55 µM (active)
IC50 [6]: > 79.4 µM (inactive)

O=C1c2ccccc2C(=O)N1c1nnc(-c2ccc(Cl)cc2)[nH]1
IC50 [2]: > 100 µM (not active)
IC50 [3]: 2.49 µM (active)

C/C=C(\C)CN1CCC(n2nccc2NC(=O)CCc2ccccc2)CC1
EC50 [1]: 0.267 µM (active)
EC50 [7]: 0.299 µM (active)

CCSC1(SCC)N=C(N)C2(C#N)C(c3ccc(F)cc3)C12C#N (stereo not given)
EC50 (Protein RecA): 12.5 µM (active)
AC50 [8]: 6.54 µM (active)
EC50 [9]: 1.86 µM (active)
AC50 [10]: 14 µM (active)

CN(C)C1(CNC(=O)c2ccc(Cl)c(S(=O)(=O)NCc3ccco3)c2)CCCCC1
EC50 [1]: 0.119 µM (active)

Nc1c(C(=O)N/N=C/c2cccnc2)oc2nc(-c3ccco3)cc(-c3ccco3)c12
IC50 (H9c2): > 79 µM (inactive)
IC50 (SUMO-activating enzyme): 8.88 µM (active)
